1 substance from paper PMC7956382 (Molecules, 2021) can be followed below.

This experiment has as its system muscle nAChR-expressing cells. Type of experiment: cell-based, mouse.

For α-bungarotoxin [α-Bgt], the “Inhibition of calcium transients” value is on record as “No transients were recorded”.
